Laboratory results as given in patent US12454529B2, “Piperazine cyclic ureas” (SIRONAX LTD., priority 2020, dated 2025).

Test system: HT-29 cells
Experiment: HT-29 cell necrosis/necroptosis inhibition (TNF-α + SMAC mimetic + zVAD-FMK; CellTiter-Glo cell viability)
Type: cell-based
Conditions: Homo sapiens; HT-29 cells, TNF-α 10 ng/ml + SMAC mimetic 6 μM + zVAD-FMK 10 μM, 20 hours; geometric mean, 10 points in duplicate; read-out: EC50 (Cell activity; Necrosis/Necroptosis Inhibitory Activity, Compounds 1-142)
In short: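 HT-29 cells (~5,000/well) were switched to FBS-free McCOY's 5A holding TNF-α (10 ng/ml), SMAC mimetic (6 μM) and zVAD-FMK (10 μM), then dosed with a 10-point 1:3 series for 20 h at 37 °C. CellTiter-Glo luminescence gave viability; geometric mean EC50 from duplicates.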

Row | SMILES | EC50
1 | Cn1cc(-c2nc(N3CCN(C(=O)N4N=CC[C@H]4c4cc(F)cc(F)c4)CC3)ncc2F)ccc1=O [Compound 89, (S)-5-(2-(4-(5-(3,5-difluorophenyl)-4,5-dihydro-1H-pyrazole-1-carbonyl)piperazin-1-yl)-5-fluoropyrimidin-4-yl)-1-methylpyridin-2(1H)-one] | 0.1 to 100 nM
2 | Cc1ncc(-c2nc(N3CCN(C(=O)N4N=CC[C@H]4c4cc(F)cc(C#N)c4)CC3)ncc2F)s1 [Compound 57, (S)-3-fluoro-5-(1-(4-(5-fluoro-4-(2-methylthiazol-5-yl)pyrimidin-2-yl)piperazine-1-carbonyl)-4,5-dihydro-1H-pyrazol-5-yl)benzonitrile] | 0.1 to 100 nM
3 | Cc1nnc(-c2nc(N3CCN(C(=O)N4N=CC[C@H]4c4cc(F)cc(F)c4)CC3)ncc2F)s1 [Compound 63, (S)-(5-(3,5-difluorophenyl)-4,5-dihydro-1H-pyrazol-1-yl)(4-(5-fluoro-4-(5-methyl-1,3,4-thiadiazol-2-yl)pyrimidin-2-yl)piperazin-1-yl)methanone] | 0.1 to 100 nM
4 | Cc1cc(O)n(-c2nc(N3CCN(C(=O)N4N=CC[C@H]4c4cc(F)cc(C#N)c4)CC3)ncc2F)n1 [Compound 141, (S)-3-fluoro-5-(1-(4-(5-fluoro-4-(5-hydroxy-3-methyl-1H-pyrazol-1-yl)pyrimidin-2-yl)piperazine-1-carbonyl)-4,5-dihydro-1H-pyrazol-5-yl)benzonitrile] | 0.1 to 100 nM
5 | O=C(N1CCN(c2ncc(F)c(-c3cnn[nH]3)n2)CC1)N1N=CC[C@H]1c1cc(F)cc(F)c1 [Compound 8, (S)-(5-(3,5-difluorophenyl)-4,5-dihydro-1H-pyrazol-1-yl)(4-(5-fluoro-4-(1H-1,2,3-triazol-5-yl)pyrimidin-2-yl)piperazin-1-yl)methanone] | 0.1 to 100 nM
6 | N#Cc1cc(F)cc([C@@H]2CC=NN2C(=O)N2CCN(c3ncc(F)c(-c4ccn(CC(N)=O)n4)n3)CC2)c1 [Compound 76, (S)-2-(3-(2-(4-(5-(3-cyano-5-fluorophenyl)-4,5-dihydro-1H-pyrazole-1-carbonyl)piperazin-1-yl)-5-fluoropyrimidin-4-yl)-1H-pyrazol-1-yl)acetamide] | 0.1 to 100 nM
7 | Cc1[nH]nnc1-c1nc(N2CCN(C(=O)N3N=CC[C@H]3c3cc(F)cc(F)c3)CC2)ncc1F [Compound 30, (S)-(5-(3,5-difluorophenyl)-4,5-dihydro-1H-pyrazol-1-yl)(4-(5-fluoro-4-(5-methyl-1H-1,2,3-triazol-4-yl)pyrimidin-2-yl)piperazin-1-yl)methanone] | 0.1 to 100 nM
8 | Cc1nc(C)n(-c2ncnc(N3CCN(C(=O)N4N=CC[C@H]4c4cc(F)cc(C#N)c4)CC3)n2)n1 [Compound 130, (S)-3-(1-(4-(4-(3,5-dimethyl-1H-1,2,4-triazol-1-yl)-1,3,5-triazin-2-yl)piperazine-1-carbonyl)-4,5-dihydro-1H-pyrazol-5-yl)-5-fluorobenzonitrile] | 0.1 to 100 nM
9 | Cc1nn(CC(N)=O)nc1-c1nc(N2CCN(C(=O)N3N=CC[C@H]3c3cc(F)cc(C#N)c3)CC2)ncc1F [Compound 78, (S)-2-(4-(2-(4-(5-(3-cyano-5-fluorophenyl)-4,5-dihydro-1H-pyrazole-1-carbonyl)piperazin-1-yl)-5-fluoropyrimidin-4-yl)-5-methyl-2H-1,2,3-triazol-2-yl)acetamide] | 0.1 to 100 nM
10 | COCCn1nc(C)c(-c2nc(N3CCN(C(=O)N4N=CC[C@H]4c4cc(F)cc(F)c4)CC3)ncc2F)c1C [Compound 120, (S)-(5-(3,5-difluorophenyl)-4,5-dihydro-1H-pyrazol-1-yl)(4-(5-fluoro-4-(1-(2-methoxyethyl)-3,5-dimethyl-1H-pyrazol-4-yl)pyrimidin-2-yl)piperazin-1-yl)methanone] | 0.1 to 100 nM
11 | N#Cc1cccc([C@@H]2CC=NN2C(=O)N2CCN(c3nccc(-n4cc(C(N)=O)cn4)n3)CC2)c1 [Compound 106, (S)-1-(2-(4-(5-(3-cyanophenyl)-4,5-dihydro-1H-pyrazole-1-carbonyl)piperazin-1-yl)pyrimidin-4-yl)-1H-pyrazole-4-carboxamide] | 0.1 to 100 nM
12 | O=C(N1CCN(c2nccc(-n3nnnc3C(F)(F)F)n2)CC1)N1N=CC[C@H]1c1ccccc1 [Compound 104, (S)-(5-phenyl-4,5-dihydro-1H-pyrazol-1-yl)(4-(4-(5-(trifluoromethyl)-1H-tetrazol-1-yl)pyrimidin-2-yl)piperazin-1-yl)methanone] | 0.1 to 100 nM
13 | O=C(N1CCN(c2nccc(-c3nnn[nH]3)n2)CC1)N1N=CC[C@H]1c1cc(F)cc(F)c1 [Compound 4, (S)-(4-(4-(1H-tetrazol-5-yl)pyrimidin-2-yl)piperazin-1-yl)(5-(3,5-difluorophenyl)-4,5-dihydro-1H-pyrazol-1-yl)methanone] | 0.1 to 100 nM

Same assay, conditions: Homo sapiens; HT-29 cells, TNF-α 10 ng/ml + SMAC mimetic 6 μM + zVAD-FMK 10 μM, 20 hours; geometric mean, 10 points in duplicate; read-out: EC50 (Cell activity; Necrosis/Necroptosis Inhibitory Activity, Compounds 143-323)

Row | SMILES | EC50
14 | Cc1cnn(C)c1-c1cc(N2CCN(C(=O)N3N=CCC3c3cncs3)CC2)c(F)cn1 (centres unmarked) [Compound 293, (4-(2-(1,4-dimethyl-1H-pyrazol-5-yl)-5-fluoropyridin-4-yl)piperazin-1-yl)(5-(thiazol-5-yl)-4,5-dihydro-1H-pyrazol-1-yl)methanone] | 0.1 to 100 nM
15 | Cc1nnc(-c2nc(N3CCN(C(=O)N4N=CC[C@H]4c4cc(F)cc(F)c4)CC3)ncc2F)n1C [Compound 178, (S)-(5-(3,5-difluorophenyl)-4,5-dihydro-1H-pyrazol-1-yl)(4-(4-(4,5-dimethyl-4H-1,2,4-triazol-3-yl)-5-fluoropyrimidin-2-yl)piperazin-1-yl)methanone] | 0.1 to 100 nM
16 | O=C(N1CCN(c2ncc(F)c(-n3nccc3C(F)(F)F)n2)CC1)N1N=CC[C@H]1c1ccccc1 [Compound 307, (S)-(4-(5-fluoro-4-(5-(trifluoromethyl)-1H-pyrazol-1-yl)pyrimidin-2-yl)piperazin-1-yl)(5-phenyl-4,5-dihydro-1H-pyrazol-1-yl)methanone] | 0.1 to 100 nM
17 | Cc1nn(-c2cc(N3CCN(C(=O)N4N=CC[C@H]4c4cncc(F)c4)CC3)ncn2)c(C)c1Cl [Compound 290, (S)-(4-(6-(4-chloro-3,5-dimethyl-1H-pyrazol-1-yl)pyrimidin-4-yl)piperazin-1-yl)(5-(5-fluoropyridin-3-yl)-4,5-dihydro-1H-pyrazol-1-yl)methanone] | 0.1 to 100 nM
18 | Cn1nc(CF)nc1-c1nc(N2CCN(C(=O)N3N=CC[C@H]3c3cc(F)cc(C#N)c3)CC2)ncc1F [Compound 170, (S)-3-fluoro-5-(1-(4-(5-fluoro-4-(3-(fluoromethyl)-1-methyl-1H-1,2,4-triazol-5-yl)pyrimidin-2-yl)piperazine-1-carbonyl)-4,5-dihydro-1H-pyrazol-5-yl)benzonitrile] | 0.1 to 100 nM
19 | Cc1nn(-c2ccnc(N3CCN(C(=O)N4N=CC[C@H]4c4cncc(F)c4)CC3)n2)c(C)c1Cl [Compound 287, (S)-(4-(4-(4-chloro-3,5-dimethyl-1H-pyrazol-1-yl)pyrimidin-2-yl)piperazin-1-yl)(5-(5-fluoropyridin-3-yl)-4,5-dihydro-1H-pyrazol-1-yl)methanone] | 0.1 to 100 nM
20 | Cc1nc(C)n(-c2ccnc(N3CCN(C(=O)N4N=CC[C@H]4c4cc(F)cc(C#N)c4)CC3)n2)n1 [Compound 243, (S)-3-(1-(4-(4-(3,5-dimethyl-1H-1,2,4-triazol-1-yl)pyrimidin-2-yl)piperazine-1-carbonyl)-4,5-dihydro-1H-pyrazol-5-yl)-5-fluorobenzonitrile] | 0.1 to 100 nM
